Results from ChEMBL document CHEMBL3885881, “DrugMatrix”.

Organism: Rattus norvegicus
Test: DrugMatrix - Regimen: Daily Repeat
Format: toxicity, organism-based, Sprague-Dawley
Design: regimen Daily Repeat, gender Male, age 6-8 weeks
Settings: in vivo, po, route oral GAVAGE, vehicle .5 % CMC; for ABSOLUTE BASOPHIL / ABSOLUTE EOSINOPHIL / ABSOLUTE LYMPHOCYTE / ABSOLUTE MONOCYTE / ABSOLUTE SEGMENTED NEUTROPHIL / BASOPHIL / EOSINOPHIL / ERYTHROCYTE COUNT / HEMATOCRIT / HEMOGLOBIN / LEUKOCYTE COUNT / LYMPHOCYTE / MEAN CORPUSCULAR HEMOGLOBIN / MEAN CORPUSCULAR HEMOGLOBIN CONCENTRATION / MEAN CORPUSCULAR VOLUME / MONOCYTE / NEUTROPHIL / NUCLEATED RED BLOOD CELLS / PLATELET COUNT: tissue Blood; for ALANINE AMINOTRANSFERASE / ALBUMIN / ALKALINE PHOSPHATASE / ASPARTATE AMINOTRANSFERASE / BLOOD UREA NITROGEN / CARBON DIOXIDE / CHLORIDE / CHOLESTEROL / CREATINE PHOSPHOKINASE / CREATININE / GLUCOSE / LACTATE DEHYDROGENASE / LIPASE / PHOSPHORUS / POTASSIUM / SODIUM / TOTAL BILIRUBIN / TOTAL PROTEIN / URIC ACID: tissue Plasma
[1] = 0 mg/kg, 72 h, dose level Control, time 3 day
[2] = 0 mg/kg, 120 h, dose level Control, time 5 day
[3] = 17 mg/kg, 72 h, dose level Low, time 3 day

CN1CCN(CCCN2c3ccccc3Sc3ccc(Cl)cc32)CC1 [PROCHLORPERAZINE]
ABSOLUTE BASOPHIL [1]: 0 CELLS/uL | ABSOLUTE EOSINOPHIL [1]: 0 CELLS/uL | ABSOLUTE LYMPHOCYTE [1]: 10913.67 CELLS/uL | ABSOLUTE MONOCYTE [1]: 85.33 CELLS/uL | ABSOLUTE SEGMENTED NEUTROPHIL [1]: 1401 CELLS/uL | BASOPHIL [1]: 0% | EOSINOPHIL [1]: 0% | ERYTHROCYTE COUNT [1]: 5.57 x10E6/uL | HEMATOCRIT [1]: 35.58% | HEMOGLOBIN [1]: 13.8 G/DL | LEUKOCYTE COUNT [1]: 12.4 x10E3/uL | LYMPHOCYTE [1]: 88% | MEAN CORPUSCULAR HEMOGLOBIN [1]: 24.78 pg | MEAN CORPUSCULAR HEMOGLOBIN CONCENTRATION [1]: 38.82 G/DL | MEAN CORPUSCULAR VOLUME [1]: 63.88 fL | MONOCYTE [1]: 0.67% | NEUTROPHIL [1]: 11.33% | NUCLEATED RED BLOOD CELLS [1]: 0 /100WBC | PLATELET COUNT [1]: 1162.33 x10E3/uL | ALANINE AMINOTRANSFERASE [1]: 53 u/L | ALBUMIN [1]: 4.17 G/DL | ALKALINE PHOSPHATASE [1]: 374.5 u/L | ASPARTATE AMINOTRANSFERASE [1]: 89.5 u/L | BLOOD UREA NITROGEN [1]: 16.33 mg/dL | CARBON DIOXIDE [1]: 29.17 mmol/L | CHLORIDE [1]: 97.67 MEQ/L | CHOLESTEROL [1]: 77 mg/dL | CREATINE PHOSPHOKINASE [1]: 464.83 u/L | CREATININE [1]: 0.14 mg/dL | GLUCOSE [1]: 164 mg/dL | LACTATE DEHYDROGENASE [1]: 155.5 u/L | LIPASE [1]: 9.17 u/L | PHOSPHORUS [1]: 12.4 mg/dL | POTASSIUM [1]: 6.91 MEQ/L | SODIUM [1]: 141.47 MEQ/L | TOTAL BILIRUBIN [1]: 0.2 mg/dL | TOTAL PROTEIN [1]: 5.95 G/DL | URIC ACID [1]: 1.72 mg/dL | ABSOLUTE BASOPHIL [2]: 0 CELLS/uL | ABSOLUTE EOSINOPHIL [2]: 20.5 CELLS/uL | ABSOLUTE LYMPHOCYTE [2]: 13871.67 CELLS/uL | ABSOLUTE MONOCYTE [2]: 60.5 CELLS/uL | ABSOLUTE SEGMENTED NEUTROPHIL [2]: 980.67 CELLS/uL | BASOPHIL [2]: 0% | EOSINOPHIL [2]: 0.17% | ERYTHROCYTE COUNT [2]: 5.65 x10E6/uL | HEMATOCRIT [2]: 35.63% | HEMOGLOBIN [2]: 14.08 G/DL | LEUKOCYTE COUNT [2]: 14.93 x10E3/uL | LYMPHOCYTE [2]: 92.83% | MEAN CORPUSCULAR HEMOGLOBIN [2]: 24.97 pg | MEAN CORPUSCULAR HEMOGLOBIN CONCENTRATION [2]: 39.55 G/DL | MEAN CORPUSCULAR VOLUME [2]: 63.13 fL | MONOCYTE [2]: 0.33% | NEUTROPHIL [2]: 6.67% | NUCLEATED RED BLOOD CELLS [2]: 0 /100WBC | PLATELET COUNT [2]: 1248.17 x10E3/uL | ALANINE AMINOTRANSFERASE [2]: 45.17 u/L | ALBUMIN [2]: 4.27 G/DL | ALKALINE PHOSPHATASE [2]: 405.67 u/L | ASPARTATE AMINOTRANSFERASE [2]: 74.17 u/L | BLOOD UREA NITROGEN [2]: 15.5 mg/dL | CARBON DIOXIDE [2]: 30.17 mmol/L | CHLORIDE [2]: 100.67 MEQ/L | CHOLESTEROL [2]: 57 mg/dL | CREATINE PHOSPHOKINASE [2]: 239.5 u/L | CREATININE [2]: 0.17 mg/dL | GLUCOSE [2]: 165.67 mg/dL | LACTATE DEHYDROGENASE [2]: 90.5 u/L | LIPASE [2]: 8.83 u/L | PHOSPHORUS [2]: 12.32 mg/dL | POTASSIUM [2]: 7.03 MEQ/L | SODIUM [2]: 142.65 MEQ/L | TOTAL BILIRUBIN [2]: 0.18 mg/dL | TOTAL PROTEIN [2]: 6.03 G/DL | URIC ACID [2]: 1.98 mg/dL | ABSOLUTE BASOPHIL [3]: 0 CELLS/uL | ABSOLUTE EOSINOPHIL [3]: 0 CELLS/uL | ABSOLUTE LYMPHOCYTE [3]: 10730.67 CELLS/uL | ABSOLUTE MONOCYTE [3]: 90 CELLS/uL | ABSOLUTE SEGMENTED NEUTROPHIL [3]: 1446 CELLS/uL | BASOPHIL [3]: 0% | EOSINOPHIL [3]: 0% | ERYTHROCYTE COUNT [3]: 5.49 x10E6/uL | HEMATOCRIT [3]: 34.9% | HEMOGLOBIN [3]: 13.83 G/DL | LEUKOCYTE COUNT [3]: 12.27 x10E3/uL | LYMPHOCYTE [3]: 87.67% | MEAN CORPUSCULAR HEMOGLOBIN [3]: 25.3 pg | MEAN CORPUSCULAR HEMOGLOBIN CONCENTRATION [3]: 39.67 G/DL | MEAN CORPUSCULAR VOLUME [3]: 63.77 fL | MONOCYTE [3]: 0.67% | NEUTROPHIL [3]: 11.67% | NUCLEATED RED BLOOD CELLS [3]: 0.33 /100WBC | PLATELET COUNT [3]: 1239 x10E3/uL | ALANINE AMINOTRANSFERASE [3]: 45 u/L | ALBUMIN [3]: 4.17 G/DL | ALKALINE PHOSPHATASE [3]: 413.67 u/L | ASPARTATE AMINOTRANSFERASE [3]: 85.33 u/L | BLOOD UREA NITROGEN [3]: 15.33 mg/dL | CARBON DIOXIDE [3]: 26 mmol/L | CHLORIDE [3]: 99.33 MEQ/L | CHOLESTEROL [3]: 67.67 mg/dL | CREATINE PHOSPHOKINASE [3]: 343 u/L | CREATININE [3]: 0.13 mg/dL | GLUCOSE [3]: 151 mg/dL | LACTATE DEHYDROGENASE [3]: 394.67 u/L | LIPASE [3]: 9.67 u/L | PHOSPHORUS [3]: 14.23 mg/dL | POTASSIUM [3]: 6.98 MEQ/L | SODIUM [3]: 143.17 MEQ/L | TOTAL BILIRUBIN [3]: 0.2 mg/dL | TOTAL PROTEIN [3]: 5.9 G/DL | URIC ACID [3]: 1.5 mg/dL
